Test results: US8648066B2 (Exelixis, Inc., priority 2009, dated 2014)
pIC50: −log10 of the molar value.

Target: mTOR/GbL/Raptor (mTORC1) (Homo sapiens, UniProt P42345)
Test: mTOR/GbL/Raptor (mTORC1) ELISA assay
Type: biochemical
Conditions: phosphorylation of 4E-BP1; 0.2 nM mTORC1, 10 μM ATP; read-out: IC50 in this assay (mTORC1 ELISA)
How it was run: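 Human mTORC1 (0.2 nM) phosphorylated 50 nM His-tagged 4E-BP1 with 10 µM ATP in HEPES pH 7.2 containing 10 mM MnCl2, 120 min at ambient temperature. Substrate was captured on Ni-chelate plates; phospho-4E-BP1 was detected by primary antibody and HRP secondary with luminescence.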

| SMILES | pIC50 |
| --- | --- |
| CC1=Cc2ncnc(N3CCOc4ccc(-c5cnc(N)c(S(=O)(=O)N6CC[C@@H](N)C6)c5)cc4C3)c2CC1(C)C [Example 447, 3-{[(3R)-3-aminopyrrolidin-1-yl]sulfonyl}-5-[4-(6,6,7-trimethyl-5,6-dihydroquinazolin-4-yl)-2,3,4,5-tetrahydro-1,4-benzoxazepin-7-yl]pyridin-2-amine] | ≥ 8.00 |
| CNCCN(C)c1ncnc(N2CCOc3ccc(-c4cnc5nc(C6CC6)[nH]c5c4)cc3C2)c1C [Example 635, N-{6-[7-(2-cyclopropyl-1H-imidazo[4,5-b]pyridin-6-yl)-2,3-dihydro-1,4-benzoxazepin-4(5H)-yl]-5-methylpyrimidin-4-yl}-N,N′-dimethylethane-1,2-diamine] | 6.00 to 6.60 |
| Cc1nc2ncc(-c3ccc4c(c3)CN(c3ncnc5c3CCCC5(C)C)CCO4)cc2[nH]1 [Example 485, 4-(8,8-dimethyl-5,6,7,8-tetrahydroquinazolin-4-yl)-7-(2-methyl-1H-imidazo[4,5-b]pyridin-6-yl)-2,3,4,5-tetrahydro-1,4-benzoxazepine] | 7.30 to 8.00 |
| Cc1nc2ncc(-c3ccc4c(c3)CN(c3ncnc(Cl)c3C)CCO4)cc2[nH]1 [Example 481, 4-(6-chloro-5-methylpyrimidin-4-yl)-7-(2-methyl-1H-imidazo[4,5-b]pyridin-6-yl)-2,3,4,5-tetrahydro-1,4-benzoxazepine] | 6.60 to 7.30 |
| Cc1nc2ncc(-c3ccc4c(c3)CN(c3nc(CN5CCOCC5)nc5c3CC(C)(C)CC5)CCO4)cc2[nH]1 [Example 498, 4-[6,6-dimethyl-2-(morpholin-4-ylmethyl)-5,6,7,8-tetrahydroquinazolin-4-yl]-7-(2-methyl-1H-imidazo[4,5-b]pyridin-6-yl)-2,3,4,5-tetrahydro-1,4-benzoxazepine] | 6.60 to 7.30 |
| Cc1nc2cc(-c3ccc4c(c3)CN(c3nc(CN(C)C)nc(C)c3-c3ccccc3)CCO4)ccc2[nH]1 [Example 681, N,N-dimethyl-1-{4-methyl-6-[7-(2-methyl-1H-benzimidazol-5-yl)-2,3-dihydro-1,4-benzoxazepin-4(5H)-yl]-5-phenylpyrimidin-2-yl}methanamine] | 6.60 to 7.30 |
| CCNCc1nc2c(c(N3CCOc4ccc(-c5cnc6nc(C)[nH]c6c5)cc4C3)n1)CC(C)(C)CC2 [Example 600, N-({6,6-dimethyl-4-[7-(2-methyl-1H-imidazo[4,5-b]pyridin-6-yl)-2,3-dihydro-1,4-benzoxazepin-4(5H)-yl]-5,6,7,8-tetrahydroquinazolin-2-yl}methyl)ethanamine] | ≥ 8.00 |
| CC1(C)CCc2ncnc(N3CCOc4ccc(-c5cnc(F)c(NS(C)(=O)=O)c5)cc4C3)c2C1 [Example 632, N-{5-[4-(6,6-dimethyl-5,6,7,8-tetrahydroquinazolin-4-yl)-2,3,4,5-tetrahydro-1,4-benzoxazepin-7-yl]-2-fluoropyridin-3-yl}methanesulfonamide] | 6.00 to 6.60 |

Results, then the compound that gave them:

| pIC50 | SMILES |
| --- | --- |
| ≥ 8.00 | Cc1ccc2ncnc(N3CCOc4ccc(-c5cnc6nc(N)[nH]c6c5)cc4C3)c2c1 [Example 218, 6-[4-(6-methylquinazolin-4-yl)-2,3,4,5-tetrahydro-1,4-benzoxazpin-7-yl]-1H-imidazo[4,5-b]pyridin-2-amine] |
| ≥ 8.00 | Cc1ncnc(N2CCOc3ccc(-c4cnc5nc[nH]c5c4)cc3C2)c1Cc1ccc(F)cc1 [Example 142, 4-{5-[(4-fluorophenyl)methyl]-6-methylpyrimidin-4-yl}-7-(1H-imidazo[4,5-b]pyridin-6-yl)-2,3,4,5-tetrahydro-1,4-benzoxazepine] |
| 7.30 to 8.00 | Cc1ncnc(N2CCOc3ccc(-c4ccn5nc(N)nc5c4)cc3C2)c1Cc1ccc(F)cc1 [Example 146, 7-(4-{5-[(4-fluorophenyl)methyl]-6-methylpyrimidin-4-yl}-2,3,4,5-tetrahydro-1,4-benzoxazepin-7-yl)[1,2,4]triazolo[1,5-a]pyridin-2-amine] |
| 6.60 to 7.30 | Cc1ncnc(N2CCOc3ccc(-c4cncs4)cc3C2)c1Cc1ccc(F)cc1 [Example 150, 4-{5-[(4-fluorrophenyl)methyl]-6-methylpyrimidin-4-yl}-7-(1,3-thiazol-5-yl)-2,3,4,5-tetrahydro-1,4-benzoxazepine] |
